Results from PubChem BioAssay AID2060894 (Molecular Pharmacology Branch, DTP, NCI, 2025).

Tested on: K12877-001-R-J1-PDC complex spheroid viability
Assay: Anticancer human tumor K12877-001-R-J1-PDC patient-derived lung adenocarcinoma cell line growth inhibition [RAS]
Details: for IC50: curve of first compound; for viability, T/C: stronger effect = lower value; active = viability on the fitted dose curve at most 10% of control; inactive = the rest
From the text: RAS pathway inhibitors in Combinations in Complex Spheroids
A high-throughput screen of multi-cell type tumor spheroids was designed to identify active combinations of RAS pathway inhibitors and targeted small molecules. Complex spheroids include a stromal component modeled by human endothelial cells (HUVEC) and fibroblasts modeled by human mesenchymal stem cells (MSCs). The concentration ranges selected for each drug and investigational agent were based upon clinically achievable concentrations if the clinical Cmax of the agent was known.
Compounds. The drugs and investigational agents: abemaciclib (NSC768073), cobimetinib (NSC768068), divarasib (GDC6063, NSC841802), docetaxel (NSC628503), GDC-1971 (RLY-1971, NSC841576), gemcitabine (NSC613327), inavolisib (NSC800729), ipatasertib (NSC767898), KB-0742 (NSC834161), MRTX-1133 (NSC836407), osimertinib (NSC779217), RMC-4630 (NSC839698), RMC-6236 (NSC851965), RMC-6291 (NSC852671), Ro-3306 (NSC812927), sapanisertib (NSC764658), SN-38 (NSC673596), staurosporine (NSC755774), SY5609 (NSC837396), and tovorafenib (DAY101, NSC766906), were obtained from the National Cancer Institute (NCI) Developmental Therapeutics Program Chemical Repository. The FDA-approved anticancer drug set is available from the NCI Developmental Therapeutics Program. […] The stock solutions were prepared in dimethyl sulfoxide (DMSO, Sigma-Aldrich, St. Louis, MO, cat. D2650) at 800-fold the tested concentration and stored at -70 degrees C prior to their use. All drugs and investigational agents were tested over a range starting from a high concentration at or near the clinical Cmax and decreasing in half-log increments. If the clinical Cmax for an agent had not been determined, the highest concentration tested was 10 microM.
Cell Culture. All cells were maintained in an incubator at 37 degrees C and 5% CO2 with 95% humidity. The PDC lines were cultured according to standard operating procedures established by the NCI PDMR. All PDCs were thawed and cultured in Matrigel-coated flasks prepared with a working solution of 1X Ham's F-12 nutrient mix, without supplementation (Invitrogen, Waltham, MA, cat. 11765054), 100 U/mL penicillin-streptomycin (Invitrogen, cat. 15140122), and 2.5% Matrigel (Corning Inc., Corning, NY, cat. 354248) for the first three passages. The 362531-283-R-J2-PDC and 782815-120-R-J1-PDC lines were cultured in 6C/Colon 1B media, which includes advanced DMEM/F-12 (Thermo Fisher Scientific, cat. 12634028), 10 mM HEPES (Thermo Fisher Scientific, cat. 15630080), 1X GlutaMAX supplement (Thermo Fisher Scientific, cat. 35050061), 0.1 mg/mL primocin (InvivoGen, San Diego, CA, cat. ant-pm-2), 10% defined fetal bovine serum, heat inactivated (HyClone Laboratories Inc., Logan, UT, cat. SH30070.03HI), 50% L-WRN conditioned media (ATCC, cat. CRL-3276), 1.25 mM N-Acetyl-L-cysteine (Sigma-Aldrich, cat. A9165), 10 mM nicotinamide (Sigma-Aldrich, cat. N0636), 1X B-27 supplement (Thermo Fisher Scientific, cat. 17504044), 1X N-2 supplement (Thermo Fisher Scientific, cat. 17502048), 50 ng/mL human EGF (Thermo Fisher Scientific, cat. PHG0311), and 10 microM Y-27632 dihydrochloride (Tocris Bioscience, cat. 1254). The K12877-001-R-J1-PDC line was cultured in 6I media, which includes all 6C/Colon 1B media plus 10 ng/mL human FGF-10 (PeproTech, cat. 100-26), 1 ng/mL human FGF-2 (PeproTech, cat. 100-18B), 1 µM prostaglandin E2 (Tocris Bioscience, cat. 2296), […] hydrocortisone (Sigma-Aldrich, cat. H4001), and […] bovine insulin (Sigma-Aldrich, cat. I6634). The K86415-001-R-J1-PDC line was cultured in 6D media, which includes all 6C/Colon 1B media components minus the L-WRN conditioned media. The 485176-168-R4-J1-PDC was cultured in PANC media, which includes all 6C/Colon 1B media plus 100 ng/mL human FGF-10 (PeproTech, cat. 100-26), 500 nM SB-431542 (Selleckchem, cat. S1067), and 10 nM gastrin (Tocris Bioscience, cat. 3006). […]
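Note: spheroids exposed to agents for one week before readout.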

CC(Nc1ccc2c(c1)OCCn1cc(N3C(=O)OCC3C(F)F)nc1-2)C(N)=O (configuration not stated) + CCn1c(-c2cc(N3CCN(C)CC3)cnc2C(C)OC)c2c3cc(ccc31)-c1csc(n1)CC(NC(=O)C1CC1C)C(=O)N1CCCC(N1)C(=O)OCC(C)(C)C2
249 nM: IC50 (second compound 0.0949 µM)
7420 nM: IC50 (second compound 0.003 µM)
inactive: viability, T/C (second compound 0.000949 µM, first compound 0.0316 µM) 80.9% | viability, T/C (second compound 0.000949 µM, first compound 0.1 µM) 81.2% | viability, T/C (second compound 0.000949 µM, first compound 0.316 µM) 81.5% | viability, T/C (second compound 0.000949 µM, first compound 1 µM) 72.4% | viability, T/C (second compound 0.000949 µM, first compound 3.16 µM) 62.2% | viability, T/C (second compound 0.000949 µM, first compound 10 µM) 56% | viability, T/C (second compound 0.003 µM, first compound 0.0316 µM) 71.6% | viability, T/C (second compound 0.003 µM, first compound 0.1 µM) 68.2% | viability, T/C (second compound 0.003 µM, first compound 0.316 µM) 63.4% | viability, T/C (second compound 0.003 µM, first compound 1 µM) 68.3% | viability, T/C (second compound 0.003 µM, first compound 3.16 µM) 62.9% | viability, T/C (second compound 0.003 µM, first compound 10 µM) 45.5% | viability, T/C (second compound 0.00949 µM, first compound 0.0316 µM) 72.7% | viability, T/C (second compound 0.00949 µM, first compound 0.1 µM) 68.9% | viability, T/C (second compound 0.00949 µM, first compound 0.316 µM) 70.6% | viability, T/C (second compound 0.00949 µM, first compound 1 µM) 69.5% | viability, T/C (second compound 0.00949 µM, first compound 3.16 µM) 59.1% | viability, T/C (second compound 0.00949 µM, first compound 10 µM) 29.9% | viability, T/C (second compound 0.03 µM, first compound 0.0316 µM) 94.3% | viability, T/C (second compound 0.03 µM, first compound 0.1 µM) 82.6% | viability, T/C (second compound 0.03 µM, first compound 0.316 µM) 64.1% | viability, T/C (second compound 0.03 µM, first compound 1 µM) 52.6% | viability, T/C (second compound 0.03 µM, first compound 3.16 µM) 42.7% | viability, T/C (second compound 0.03 µM, first compound 10 µM) 20% | viability, T/C (second compound 0.0949 µM, first compound 0.0316 µM) 80.3% | viability, T/C (second compound 0.0949 µM, first compound 0.1 µM) 61.2% | viability, T/C (second compound 0.0949 µM, first compound 0.316 µM) 43.8% | viability, T/C (second compound 0.0949 µM, first compound 1 µM) 35.8% | viability, T/C (second compound 0.0949 µM, first compound 3.16 µM) 23.7% | viability, T/C (second compound 0.0949 µM, first compound 10 µM) 12% | viability, T/C (second compound 0.3 µM, first compound 0.0316 µM) 65.9% | viability, T/C (second compound 0.3 µM, first compound 0.1 µM) 40.2% | viability, T/C (second compound 0.3 µM, first compound 0.316 µM) 32.2% | viability, T/C (second compound 0.3 µM, first compound 1 µM) 30.3% | viability, T/C (second compound 0.3 µM, first compound 3.16 µM) 19.1% | viability, T/C (second compound 0.3 µM, first compound 10 µM) 8.63%
77.5 nM: IC50 (second compound 0.3 µM)
> 10000 nM: IC50 (second compound 0.000949 µM)
1250 nM: IC50 (second compound 0.03 µM)
4590 nM: IC50 (second compound 0.00949 µM)
